# Assay results as given in BindingDB's records for doi:10.7270/Q25719FH (Srmlsc, 2007).
# Biological target: Multidrug resistance-associated protein 1 (Homo sapiens, UniProt P33527)
# Test: doxorubicin EC50 increase in MRP-1 cells, dose response, cell-based, doxorubicin EC50 shift (AID 844)
# Chain of Multidrug resistance-associated protein 1 (P33527 whole entry): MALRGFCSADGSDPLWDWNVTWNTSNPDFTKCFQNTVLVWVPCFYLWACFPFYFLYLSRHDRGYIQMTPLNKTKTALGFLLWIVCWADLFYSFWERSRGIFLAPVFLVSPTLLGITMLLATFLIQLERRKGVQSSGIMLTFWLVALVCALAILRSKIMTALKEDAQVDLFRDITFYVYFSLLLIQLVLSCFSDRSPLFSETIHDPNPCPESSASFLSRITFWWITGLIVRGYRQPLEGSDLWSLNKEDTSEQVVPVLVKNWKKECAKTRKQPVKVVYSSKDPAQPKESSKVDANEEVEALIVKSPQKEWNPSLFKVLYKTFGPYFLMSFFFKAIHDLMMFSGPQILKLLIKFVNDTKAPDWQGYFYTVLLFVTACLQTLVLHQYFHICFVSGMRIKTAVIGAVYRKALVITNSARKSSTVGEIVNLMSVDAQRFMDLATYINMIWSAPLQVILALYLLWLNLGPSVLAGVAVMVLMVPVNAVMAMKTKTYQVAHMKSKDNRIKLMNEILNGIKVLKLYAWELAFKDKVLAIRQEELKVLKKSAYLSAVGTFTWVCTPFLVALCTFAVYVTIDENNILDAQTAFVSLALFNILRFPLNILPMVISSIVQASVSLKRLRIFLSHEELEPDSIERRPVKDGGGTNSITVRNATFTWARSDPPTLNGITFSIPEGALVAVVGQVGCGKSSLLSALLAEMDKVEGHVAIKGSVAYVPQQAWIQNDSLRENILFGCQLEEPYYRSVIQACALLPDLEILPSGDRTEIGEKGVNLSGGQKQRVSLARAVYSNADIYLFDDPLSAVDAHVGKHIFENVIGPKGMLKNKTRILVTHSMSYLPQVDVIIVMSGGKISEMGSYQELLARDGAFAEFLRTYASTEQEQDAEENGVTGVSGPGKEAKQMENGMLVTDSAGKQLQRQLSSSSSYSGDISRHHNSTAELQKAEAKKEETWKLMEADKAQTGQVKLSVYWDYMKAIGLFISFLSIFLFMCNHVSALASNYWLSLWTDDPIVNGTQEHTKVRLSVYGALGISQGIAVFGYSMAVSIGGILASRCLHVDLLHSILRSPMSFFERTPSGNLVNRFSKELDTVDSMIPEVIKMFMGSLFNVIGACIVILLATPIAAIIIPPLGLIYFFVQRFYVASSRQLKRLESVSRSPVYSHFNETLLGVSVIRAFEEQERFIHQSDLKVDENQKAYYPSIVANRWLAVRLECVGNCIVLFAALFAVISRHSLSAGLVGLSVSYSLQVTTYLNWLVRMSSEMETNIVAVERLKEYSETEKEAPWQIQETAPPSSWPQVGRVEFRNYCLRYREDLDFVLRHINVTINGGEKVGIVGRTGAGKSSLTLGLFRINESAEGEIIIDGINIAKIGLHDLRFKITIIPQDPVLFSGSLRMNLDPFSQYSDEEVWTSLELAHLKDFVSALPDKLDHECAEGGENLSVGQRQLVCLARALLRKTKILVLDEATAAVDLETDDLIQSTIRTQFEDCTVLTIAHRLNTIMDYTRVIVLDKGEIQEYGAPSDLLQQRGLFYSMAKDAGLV
row,Compound,EC50
1,"C=CCN(C(=O)Nc1ccc(Cl)cc1)c1cc(O)n(-c2ccc(OC)cc2)c1O [1-allyl-3-(4-chlorophenyl)-1-[2,5-diketo-1-(4-methoxyphenyl)pyrrolidin-3-yl]urea]",4.85 µM
2,"COc1ccc(-n2c(O)cc(N3CCC(O)(c4cccc(C(F)(F)F)c4)CC3)c2O)cc1 [1-(4-methoxyphenyl)-3-[4-oxidanyl-4-[3-(trifluoromethyl)phenyl]piperidin-1-yl]pyrrolidine-2,5-dione]",4.82 µM
3,Cc1ccc(-n2[nH]c(C)c(C(c3ccccc3O)c3c(C)[nH]n(-c4ccc(C)cc4C)c3=O)c2=O)c(C)c1,3.81 µM
4,"Cc1cccc(NC(=O)Cc2sc(=O)n(-c3ccccc3)c2O)c1 [2-(2,4-Dioxo-3-phenyl-thiazolidin-5-yl)-N-m-tolyl-acetamide]",5.15 µM
5,"COc1ccc(N2C(=S)C(C#N)C(=O)NC2c2ccco2)cc1 (stereo not drawn) [2-(2-furanyl)-4-mercapto-3-(4-methoxyphenyl)-6-oxo-1,2-dihydropyrimidine-5-carbonitrile]",2.2 µM
6,O=CC(=NNc1ccccc1)C(=O)c1ccncc1 [3-keto-2-(phenylhydrazono)-3-(4-pyridyl)propionaldehyde],7.54 µM
7,O=[N+]([O-])c1ccc(N=NCc2ccccc2)c(F)c1 [2-fluoranyl-4-nitro-N-[(phenylmethylidene)amino]aniline],3.44 µM
8,"COc1ccccc1C1C(C(=O)c2sc(C)nc2C)C(=O)C(=O)N1CCN1CCOCC1 (stereo not drawn) [3-(2,4-dimethyl-1,3-thiazole-5-carbonyl)-4-hydroxy-2-(2-methoxyphenyl)-1-(2-morpholin-4-ylethyl)-2H-pyrrol-5-one]",3.81 µM
9,"O=C(O)c1cccc(-n2c(O)c3c(c2O)CC(Cl)=CC3)c1 [3-[5-chloranyl-1,3-bis(oxidanylidene)-3a,4,7,7a-tetrahydroisoindol-2-yl]benzoic acid]",7.97 µM
10,O=c1[nH]c2ccccc2n1C1CCN(c2cc(O)n(-c3ccc(F)cc3)c2O)CC1,7.59 µM
11,"Cc1cc(N=NCc2ccccc2Cl)nc(NCc2ccccc2)n1 [2-N-benzyl-4-N-[(2-chlorophenyl)methylideneamino]-6-methylpyrimidine-2,4-diamine]",1.08 µM
12,COc1ccc(-n2c(O)cc(N3CCC(n4c(=O)[nH]c5ccccc54)CC3)c2O)cc1,5.64 µM
13,O=C1C=CC([N+](=O)[O-])=CC1/C=N/n1cnc2ccccc21 (stereo not drawn) [2-[(E)-Benzoimidazol-1-yliminomethyl]-4-nitro-phenol],3.61 µM
14,"Cc1ccccc1NC(=O)Cc1sc(=O)n(-c2ccccc2)c1O [2-(2,4-Dioxo-3-phenyl-thiazolidin-5-yl)-N-o-tolyl-acetamide]",7.29 µM
15,C=C(C)C(=O)Nc1cc(=O)n(-c2ccccc2)[nH]1 [2-methyl-N-(5-oxo-1-phenyl-4H-pyrazol-3-yl)prop-2-enamide],5.63 µM
16,"N#CC1C(=N)SC(=N)C(C#N)C1c1cccc(O)c1 (stereo not drawn) [2,6-Diamino-4-(3-hydroxy-phenyl)-4H-thiopyran-3,5-dicarbonitrile]",5.78 µM
17,"Oc1cc(N2CCC(c3nc4ccccc4o3)CC2)c(O)n1-c1cc(Cl)cc(Cl)c1 [3-[4-(1,3-benzoxazol-2-yl)-1-piperidinyl]-1-(3,5-dichlorophenyl)-2,5-pyrrolidinedione]",7.36 µM
18,"Oc1cc(N2CCN(c3nc4ccccc4s3)CC2)c(O)n1-c1ccc(F)cc1 [3-[4-(1,3-benzothiazol-2-yl)-1-piperazinyl]-1-(4-fluorophenyl)pyrrolidine-2,5-dione]",6.38 µM
19,CC1CCN(S(=O)(=O)c2ccc(Br)s2)CC1 [1-(5-bromanylthiophen-2-yl)sulfonyl-4-methyl-piperidine],3.52 µM
20,"Oc1nc(Nc2ccccc2)sc1Cc1cccc(Cl)c1Cl [2-anilino-5-(2,3-dichlorobenzyl)-2-thiazolin-4-one]",6.54 µM
21,COc1ccc(Cc2nnc(N=NCc3ccc(O)cc3O)[nH]c2=O)cc1OC,0.836 µM
22,"COc1cccc(C=Nn2c(O)csc2=S)c1O [3-[[(E)-(5-methoxy-6-oxidanylidene-cyclohexa-2,4-dien-1-ylidene)methyl]amino]-2-sulfanylidene-1,3-thiazolidin-4-one]",7.08 µM
23,"CCSC(C)CC1Cc2onc(CC)c2C(N=O)C1 (stereo not drawn) [3-ethyl-6-[2-(ethylthio)propyl]-6,7-dihydro-5H-1,2-benzoxazol-4-one oxime]",6.85 µM
24,COC(=O)C1=C(C)N=C(C)C(C(=O)OC)C1c1ccccc1OCc1c(C)n[o+]n1[O-] (stereo not drawn),5.32 µM
25,"O=C(Cc1sc(=O)n(-c2ccccc2)c1O)Nc1ccccc1 [2-(2,4-diketo-3-phenyl-thiazolidin-5-yl)-N-phenyl-acetamide]",6.42 µM

# Next, values leading:
row,EC50,Compound
1,6.22 µM,Cc1cccc(Cc2sc(Nc3ccccn3)nc2O)c1 [5-(3-Methyl-benzyl)-2-(pyridin-2-ylimino)-thiazolidin-4-one]
2,5.39 µM,"Cc1cc(C)nc(N=NCc2cccc3ccccc23)n1 [(4,6-dimethylpyrimidin-2-yl)-(1-naphthylmethyleneamino)amine]"
3,7.52 µM,"O=C1Nc2ccc(F)cc2C12NC(Cc1ccc(O)cc1)c1c2c(O)n(-c2ccc(F)cc2)c1O [(3aR,6aS)-5'-fluoranyl-5-(4-fluorophenyl)-1-[(4-hydroxyphenyl)methyl]spiro[1,2,3a,6a-tetrahydropyrrolo[3,4-c]pyrrole-3,3'-1H-indole]-2',4,6-trione]"
4,3.14 µM,"CCOc1ccc2c(c1)C(N=O)C(=O)N2C (stereo not drawn) [(3E)-5-ethoxy-1-methyl-1H-indole-2,3-dione 3-oxime]"
5,7 µM,"N#Cc1ccc(-n2c(O)c3[nH][nH]c(C(=O)c4ccc5ccccc5n4)c-3c2=O)cc1 [4-[(3aS,6aS)-4,6-dioxo-3-[oxo(2-quinolinyl)methyl]-3a,6a-dihydro-1H-pyrrolo[3,4-c]pyrazol-5-yl]benzonitrile]"
6,1.6 µM,"COc1cccc(C2C(C(=O)Nc3nc4ccccc4s3)=C(C)N=C3CC(C)(C)CC(=O)C32)c1OC (stereo not drawn) [N-(1,3-benzothiazol-2-yl)-4-(2,3-dimethoxyphenyl)-2,7,7-trimethyl-5-oxo-1,4,6,8-tetrahydroquinoline-3-carboxamide]"
7,7.02 µM,"Cc1cc(=O)oc2c1ccc1oc(C(N=O)c3ccccc3)c(C)c12 (stereo not drawn) [4,9-dimethyl-8-(N-oxidanyl-C-phenyl-carbonimidoyl)furo[2,3-h]chromen-2-one]"
8,5.6 µM,O=C1CC(=O)CC(c2ccc(Cl)cc2)C1 [5-(4-chlorophenyl)-3-hydroxy-1-cyclohex-2-enone]
9,8.43 µM,"O=C(CCCCl)Nc1cc(=O)n(-c2ccccc2)[nH]1 [4-Chloro-N-(5-oxo-1-phenyl-4,5-dihydro-1H-pyrazol-3-yl)-butyramide]"
10,2.86 µM,O=C(CC=NNC(=O)c1ccccc1)c1ccc(Br)cc1 [MLS000532545]
11,1.9 µM,"COc1ccc(CN=Nc2nc(-c3ccc(Cl)cc3)cc(C(F)(F)F)n2)cc1OC [4-(4-chlorophenyl)-N-[(3,4-dimethoxyphenyl)methylideneamino]-6-(trifluoromethyl)-2-pyrimidinamine]"
12,6.47 µM,"COc1cccc(C=NNC(=O)c2[nH][nH]c(=O)c2C)c1O [N'-[(E)-(5-methoxy-6-oxidanylidene-cyclohexa-2,4-dien-1-ylidene)methyl]-4-methyl-5-oxidanylidene-1,4-dihydropyrazole-3-carbohydrazide]"
13,3.78 µM,O=C(Nc1nc(O)cs1)c1ccccc1 [MLS000106877]
14,7.07 µM,"O=C(O)c1ccc(N=NCc2ccc(F)c(F)c2)cc1 [4-[2-[(3,4-difluorophenyl)methylidene]hydrazinyl]benzoic acid;sulfuric acid]"
15,2.87 µM,"CC1=CC([N+](=O)[O-])=CC(C=NNC(=O)c2cc(C)n[nH]2)C1=O (stereo not drawn) [5-methyl-N'-[(E)-(5-methyl-3-nitro-6-oxo-1-cyclohexa-2,4-dienylidene)methyl]-1H-pyrazole-3-carbohydrazide]"
16,3.65 µM,"COc1cc(C2NC(=O)N=C(C)C2C(=O)OCc2ccc(C)cc2)cc(OC)c1O (stereo not drawn) [(4-methylphenyl)methyl 4-(3,5-dimethoxy-4-oxidanyl-phenyl)-6-methyl-2-oxidanylidene-3,4-dihydro-1H-pyrimidine-5-carboxylate]"
17,3.33 µM,CCN(C1CCCCC1)S(=O)(=O)c1cc(C)ccc1OC [MLS000028538]
18,3.1 µM,COc1ccc(CN=Nc2cc(OC)ncn2)cc1 [6-methoxy-N-[(4-methoxyphenyl)methylideneamino]-4-pyrimidinamine]
19,3.7 µM,"CCN(CC)S(=O)(=O)c1ccc(N=NC(C#N)C#N)cc1 [4-[2-(dicyanomethylene)hydrazino]-N,N-diethylbenzenesulfonamide]"
20,6.31 µM,"Cc1ccc(C)c(C(=O)C2C(=O)C(=O)N(CCCn3ccnc3)C2c2ccncc2)c1 (stereo not drawn) [(4E)-4-[(2,5-dimethylphenyl)-hydroxy-methylene]-1-(3-imidazol-1-ylpropyl)-5-(4-pyridyl)pyrrolidine-2,3-quinone]"
21,4.7 µM,C=CCc1c(C)nc(-c2ccccc2)nc1N=NCc1ccccc1 [6-methyl-2-phenyl-N-[(phenylmethylene)amino]-5-prop-2-enyl-4-pyrimidinamine]
22,1.12 µM,COC(=O)C(C=Nc1ccc(O)cc1)[N+](=O)[O-] (stereo not drawn) [(Z)-3-(4-hydroxyanilino)-2-nitro-2-propenoic acid methyl ester]
23,4.16 µM,"CCCCCCN1C(=O)C(=Cc2c[nH]nc2-c2ccccc2)SC1=S [(5Z)-3-hexyl-5-[(5-phenyl-1H-pyrazol-4-yl)methylidene]-2-sulfanylidene-1,3-thiazolidin-4-one]"
24,< 0.195 µM,"Cc1cc(N=NCc2ccc(O)cc2O)nc(-n2nc(C)cc2C)n1 [(4E)-4-[[2-[2-(3,5-dimethylpyrazol-1-yl)-6-methyl-pyrimidin-4-yl]hydrazinyl]methylidene]-3-oxidanyl-cyclohexa-2,5-dien-1-one]"
25,2.34 µM,C=CCc1c(C)nc(-c2ccccc2)nc1N=NC(C)c1ccccc1 (stereo not drawn) [(5-allyl-6-methyl-2-phenyl-pyrimidin-4-yl)-(1-phenylethylideneamino)amine]
26,4.99 µM,Oc1csc(=S)n1N=C1CCCCCC1 [SMR000212426]
27,3.75 µM,CCc1ccc(C(C)N=Nc2cc(Cl)nc(C)n2)cc1 (stereo not drawn) [(6-chloro-2-methyl-pyrimidin-4-yl)-[1-(4-ethylphenyl)ethylideneamino]amine]
28,0.656 µM,COc1ccc(CN=Nc2cc(C)nc(-n3nc(C)cc3C)n2)cc1 [SMR000212741]
